Test results: patent US20200131144A1, “AMINE OR (THIO)AMIDE CONTAINING LXR MODULATORS” (Phenex-FXR GmbH, priority 2017, published 2020)

Assays:
[1] = target: T1, GST-LXRβ ligand-binding domain (Homo sapiens, UniProt P55055, INS174Q); assay: TR-FRETβ activity assay (NCoA3 coactivator peptide recruitment); format: biochemical; conditions: 1 μM 24(S)-25-epoxycholesterol as prestimulating agonist; inverse agonist unless *
T1 construct: amino acids 156-461; NP009052; made in house; host or cells: E. coli
T1 sequence (P55055 with tags, fused parts or gaps INS174Q limits assumed): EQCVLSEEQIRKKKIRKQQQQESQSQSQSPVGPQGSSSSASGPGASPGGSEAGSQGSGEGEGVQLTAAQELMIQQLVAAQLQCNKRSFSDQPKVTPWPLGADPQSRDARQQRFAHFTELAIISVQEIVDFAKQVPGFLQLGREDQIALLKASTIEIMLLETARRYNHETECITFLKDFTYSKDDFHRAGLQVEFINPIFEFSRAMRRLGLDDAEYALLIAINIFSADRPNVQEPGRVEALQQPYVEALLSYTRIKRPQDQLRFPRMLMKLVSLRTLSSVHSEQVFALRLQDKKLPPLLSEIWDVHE
Experimental: The tested compounds were usually dissolved, tested and stored as 20 mM stock solutions in DMSO. […] Sulfonyl acetic acid derivatives are shelf stable as solid at rt for long time as reported by Griesbrecht et al. (Synlett 2010:374) or Faucher et al. (J. Med. Chem. 2004; 47:18). TR-FRETβ Activity Assay Recombinant GST-LXRβ ligand-binding domain (LBD; amino acids 156-461; NP009052; SEQ ID NO:4) was expressed in E. coli and purified via gluthatione-sepharose affinity chromatography. N-terminally biotinylated NCoA3 coactivator peptide (SEQ ID NO:7) was chemically synthesized (Eurogentec). […] Finally, a detection mix was added containing anti GST-Tb cryptate (CisBio; 610SAXLB) and Streptavidin-XL665 (CisBio; 610SAXLB) as fluorescent donor and acceptor, respectively, as well as the coactivator peptide and LXRβ-LBD protein (SEQ ID NO:4). The reaction was mixed thoroughly, equilibrated for 1 h at 4° C. and vicinity of LXRβ and coactivator peptide was detected by measurement of fluorescence in a VictorX4 multiplate reader (PerkinElmer Life Science) using 340 nm as excitation and 615 and 665 nm as emission wavelengths. Assays were performed in triplicates. Final Assay Concentrations of Components: 240 mM KCl, 1 μg/μL BSA, 0.002% Triton-X-100, 125 pg/μL anti GST-Tb cryptate, 2.5 ng/μL Streptavidin-XL665, coactivator peptide (400 nM), LXRP protein ([…], i.e. 76 nM).

[2] = target: T2, LXRα full length (FL) (Homo sapiens, UniProt Q13133); assay: LXR Gal4 reporter transient transfection assay, mammalian two-hybrid, FL-M2H Gal4α; format: cell-based; conditions: HEK293 cells; inverse agonist unless *
T2 construct: the full length (FL) proteins of LXRα (amino acids 1-447); NP005684; expressed in transfected cells; host or cells: HEK293
T2 sequence (Q13133 1-447): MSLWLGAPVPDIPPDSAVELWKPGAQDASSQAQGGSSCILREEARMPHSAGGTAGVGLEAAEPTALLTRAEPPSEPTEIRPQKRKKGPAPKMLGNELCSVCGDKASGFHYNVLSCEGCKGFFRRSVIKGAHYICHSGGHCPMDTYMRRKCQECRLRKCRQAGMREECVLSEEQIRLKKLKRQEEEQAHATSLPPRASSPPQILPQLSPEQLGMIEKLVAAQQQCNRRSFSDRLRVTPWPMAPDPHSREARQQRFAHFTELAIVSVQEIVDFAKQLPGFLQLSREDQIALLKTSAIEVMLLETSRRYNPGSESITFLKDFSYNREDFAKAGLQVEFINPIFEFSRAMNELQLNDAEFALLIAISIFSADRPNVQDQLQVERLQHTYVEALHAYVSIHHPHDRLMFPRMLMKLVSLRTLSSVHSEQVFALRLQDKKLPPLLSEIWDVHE
Experimental: (§1) The tested compounds were usually dissolved, tested and stored as 20 mM stock solutions in DMSO. Since sulfonyl acetic acid derivatives tend to decarboxylate under these conditions, these stock solutions were prepared, tested and stored as 20 mM DMSO stock solutions containing 100 mM trifluoroacetic acid (5 equivalents). Sulfonyl acetic acid derivatives are shelf stable as solid at rt for long time as reported by Griesbrecht et al. (Synlett 2010:374) or Faucher et al. (J. Med. Chem. 2004; 47:18).
(§2) LXR Gal4 Reporter Transient Transfection Assays
(§3) LXRα and LXRβ activity status was determined via detection of interaction with coactivator and corepressor proteins in mammalian two-hybrid experiments (M2H). For this, via transient transfection the full length (FL) proteins of LXRα (amino acids 1-447; NP005684; SEQ ID NO:1) or LXRβ-(amino acids 1-461; NP009052; SEQ ID NO:2) or the ligand-binding domains (LBD) of LXRα (amino acids 155-447 SEQ ID NO:3) or LXR (amino acids 156-461; SEQ ID NO:4) were expressed from pCMV-AD (Stratagene) as fusions to the transcriptional activation domain of NFkB. As cofactors, domains of either the steroid receptor coactivator 1 (SRC1; amino acids 552-887; SEQ ID NO:5) or of the corepressor NCoR (amino acids 1906-2312; NP006302; SEQ ID NO:6) were expressed as fusions to the DNA binding domain of the yeast transcription factor GAL4 (from pCMV-BD; Stratagene). Interaction was monitored via activation of a coexpressed Firefly Luciferase Reporter gene under control of a promoter containing repetitive GAL4 response elements (vector pFRLuc; Stratagene). Transfection efficiency was controlled via cotransfection of constitutively active pRL-CMV Renilla reniformis luciferase reporter (Promega). HEK293 cells were grown in minimum essential medium (MEM) with 2 mM L-glutamine and Earle's balanced salt solution supplemented with 8.3% fetal bovine serum, 0.1 mM non-essential amino acids, 1 mM sodium pyruvate, at 37° C. in 5% CO2. 3.5×10^4 cells/well were plated in 96-well cell culture plates in growth medium supplemented with 8.3% fetal bovine serum for 16-20 h to—90% confluency. For transfection, medium was taken off and LXR and cofactor expressing plasmids as well as the reporter plasmids are added in 30 μL OPTIMEM/well including polyethylene-imine (PEI) as vehicle. Typical amounts of plasmids transfected/well: pCMV-AD-LXR (5 ng), pCMV-BD-cofactor (5 ng), pFR-Luc (100 ng), pRL-CMV (0.5 ng). Compound stocks were prepared in DMSO, prediluted in MEM to a total volume of 120 μL, and added 4 h after addition of the transfection mixture (final vehicle concentration not exceeding 0.2%). Cells were incubated for additional 16 h, lysed for 10 min in 1×Passive Lysis Buffer (Promega) and Firefly and Renilla luciferase activities were measured sequentially in the same cell extract using buffers containing D-luciferine and coelenterazine, respectively. Measurements of luminescence were done in a BMG-luminometer.

[3] = target: T3, LXRβ full length (FL) (Homo sapiens, UniProt P55055, INS174Q); assay: LXR Gal4 reporter transient transfection assay, mammalian two-hybrid, FL-M2H Gal4β; format: cell-based; conditions: HEK293 cells; inverse agonist unless *
T3 construct: the full length (FL) proteins of LXRα (amino acids 1-447); NP005684; NP009052; expressed in transfected cells; host or cells: HEK293
T3 sequence (P55055 with tags, fused parts or gaps INS174Q): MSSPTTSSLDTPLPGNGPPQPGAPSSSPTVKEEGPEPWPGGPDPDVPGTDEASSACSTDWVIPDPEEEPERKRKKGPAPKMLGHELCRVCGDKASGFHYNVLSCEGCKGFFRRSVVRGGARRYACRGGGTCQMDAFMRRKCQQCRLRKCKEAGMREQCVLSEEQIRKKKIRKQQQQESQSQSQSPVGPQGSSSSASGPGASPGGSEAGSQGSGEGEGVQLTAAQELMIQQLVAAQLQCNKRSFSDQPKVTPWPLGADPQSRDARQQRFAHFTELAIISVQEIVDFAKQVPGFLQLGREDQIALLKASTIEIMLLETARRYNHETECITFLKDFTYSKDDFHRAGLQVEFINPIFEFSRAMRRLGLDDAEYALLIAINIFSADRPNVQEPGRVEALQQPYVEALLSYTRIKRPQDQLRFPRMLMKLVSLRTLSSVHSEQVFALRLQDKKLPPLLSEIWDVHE
Experimental: as §1, §2, §3

Row | Structure (SMILES) | EC50 [1] | EC50 [2] | EC50 [3]
1 | Cc1cc(C(=O)N(Cc2ccc(-c3cccc(C(C)(C)C(=O)O)c3)cc2)Cc2ccc(C(F)(F)F)o2)c2ccc(F)cc2n1 [27/127] | 1 to 10 µM | 0.1 to 1 µM | 0.1 to 1 µM
2 | CC(C)(C(=O)O)c1cccc(-c2ccc(CN(Cc3ccc(C(F)(F)F)o3)C(=O)c3c4ccccc4nc4ccccc34)cc2)c1 [27/31] | < 0.1 µM | < 0.1 µM | < 0.1 µM
3 | Cc1cc(C)c(CN(Cc2ccc(-c3cc(F)c(CF)c(S(=O)(=O)CC(=O)O)c3)cc2)Cc2ccc(C(F)(F)F)o2)c(C)c1 [Example 20, 2-((5-Fluoro-4-(fluoromethyl)-4′-((((5-(trifluoromethyl)furan-2-yl)methyl)(2,4,6-trimethyl-benzyl)amino)methyl)-[1,1′-biphenyl]-3-yl)sulfonyl)acetic acid] | 1 to 10 µM | – | 0.1 to 1 µM
4 | Cc1cc(C)c(CCN(Cc2ccc(-c3cccc(S(=O)(=O)CC(=O)O)c3)cc2)Cc2ccc(C(F)(F)F)o2)c(C)c1 [7/8] | > 10 µM | – | 1 to 10 µM
5 | Cc1cc(C)c(CC(=O)N(Cc2ccc(-c3cccc(S(=O)(=O)CC(=O)O)c3)cc2)Cc2ccc(C(F)(F)F)o2)c(C)c1 [Example 9/1] | – | – | 1 to 10 µM
6 | Cc1ccc2ccccc2c1C(=O)N(Cc1ccc(-c2cccc(C(C)(C)C(=O)O)c2)cc1)Cc1ccc(C(=O)O)o1 [27/29] | – | 1 to 10 µM | 1 to 10 µM
7 | Cc1ccc2ccccc2c1C(=O)N(Cc1ccc(-c2cccc(S(=O)(=O)CC(=O)O)c2)cc1)Cc1ccc(C(N)=O)o1 [Example 16, 2-((4′-((N-((5-Carbamoylfuran-2-yl)methyl)-2-methyl-1-naphthamido)methyl)-[1,1′-biphenyl]-3-yl)sulfonyl)acetic acid] | – | – | 1 to 10 µM
8 | Cc1nc(C)c(CN(Cc2ccc(-c3cc(F)c(CO)c(S(=O)(=O)CC(=O)O)c3)cc2)Cc2ccc(C(F)(F)F)o2)c(C)n1 [22/6] | 1 to 10 µM | – | 1 to 10 µM
9 | COc1ccc2nc(C)c(C)c(C(=O)N(Cc3ccc(-c4cccc(C(C)(C)C(=O)O)c4)cc3)Cc3ccc(C(F)(F)F)o3)c2n1 [27/134] | – | < 0.1 µM | < 0.1 µM
10 | Cc1ccc2ccccc2c1C(=O)N(Cc1ccc(C(F)(F)F)o1)Cc1ccc(-c2cncc(C(C)(C)C(=O)O)c2)cc1C(F)F [27/63] | 0.1 to 1 µM | – | –

The next lines start with the values.

Row | EC50 [1] | EC50 [2] | EC50 [3] | Structure (SMILES)
11 | – | 1 to 10 µM | 0.1 to 1 µM | COc1cc(-c2cc(F)c(CO)c(S(=O)(=O)CC(=O)O)c2)cnc1CN(Cc1ccc(C(F)(F)F)o1)Cc1c(C)ccc2ccccc12 [22/3]
12 | – | < 0.1 µM | < 0.1 µM | CC1CCc2ccccc2N1C(=O)N(Cc1ccc(-c2cccc(C(C)(C)C(=O)O)c2)cc1)Cc1ccc(C(F)(F)F)o1 (centres unmarked) [27/96]
13 | > 10 µM | – | 0.1 to 1 µM | Cc1cc(C)c(CN(Cc2ccc(C(F)(F)F)o2)Cc2sc(-c3cccc(S(=O)(=O)CC(=O)O)c3)cc2Cl)c(C)c1 [15/4]
14 | – | – | 1 to 10 µM | O=C(O)CS(=O)(=O)c1cccc(-c2ccc(CN(Cc3ccccc3)Cc3ccc(C(F)(F)F)o3)cc2)c1 [7/11]
15 | 1 to 10 µM | – | 1 to 10 µM | COc1cc(-c2cccc(S(=O)(=O)CC(=O)O)c2)ccc1CN(Cc1ccc(C(F)(F)F)o1)Cc1c(C)cc(C)cc1C [15/2]
16 | 1 to 10 µM | – | – | Cc1cc(C)c(CN(Cc2ccc(-c3ccc(CO)c(S(=O)(=O)CC(=O)O)c3)cc2)Cc2ccc(C(F)(F)F)o2)c(C)c1 [Example 12, 2-((4-(Hydroxvmethyl)-4′-((((5-(trifluoromethyl)furan-2-yl)methyl)(2,4,6-trimethyl-benzyl)amino)methyl)-[1,1′-biphenyl]-3-yl)sulfonyl)acetic acid]
17 | > 10 µM | – | – | Cc1cc(C)c(CN(Cc2ccc(-c3cccc(S(=O)(=O)CC(=O)O)c3)cc2)C(=O)c2ccc(C(F)(F)F)o2)c(C)c1 [27/57]
18 | > 10 µM | – | – | Cc1ccc2ccccc2c1CN(Cc1ccc(C(F)(F)F)o1)Cc1ccc(-c2cccc(S(=O)(=O)CC(=O)O)c2)c2nccn12 [Example 27, 2-((3-(5-((((2-Methylnaphthalen-1-yl)methyl)((5-(trifluoromethyl)furan-2-yl)methyl)amino)methyl)imidazo[1,2-a]pyridin-8-yl)phenyl)sulfonyl)acetic acid]
19 | > 10 µM | – | 1 to 10 µM | O=C(O)CS(=O)(=O)c1cccc(-c2ccc(CN(Cc3ccc(C(F)(F)F)o3)C3CCc4cccc5cccc3c45)cc2)c1 (centres unmarked) [27/40]
20 | – | – | 0.1 to 1 µM | CC(C)(C(=O)O)c1cccc(-c2ccc(CN(Cc3ccc(C(F)(F)F)o3)C(CF)c3cccc4ccccc34)cc2)c1 (centres unmarked) [Example 18, 2-(4′-(((2-Fluoro-1-(naphthalen-1-yl)ethyl)((5-(trifluoromethyl)furan-2-yl)methyl)amino)methyl)-[1,1′-biphenyl]-3-yl)-2-methylpropanoic acid]
21 | > 10 µM | – | – | Cc1cc(C)c(CN(Cc2ccc(-c3cccc(S(=O)(=O)CC(=O)NS(=O)(=O)N(C)C)c3)cc2)Cc2ccc(C(F)(F)F)o2)c(C)c1 [Example 2/1]
